Experiments:
Experiment in all cases: MIC, antibacterial and synergistic activity
Type in all cases: cell-based
K. pneumo JMI 2674 [1] = settings: K. pneumo JMI 2674 (CTX-M15 (ESBL)); substance alone
K. pneumo JMI 2681 = K. pneumo JMI 2681 (Oxa-48 (Cpase))
K. pneumo JMI 4106 = K. pneumo JMI 4106 (KPC-3, TEM-1, SHV-12, SHV-141)
K. pneumo JMI 2697 = K. pneumo JMI 2697 (IMP-4 (Cpase))
Protocol: In the Tables 10 - 12, compounds herein disclosed were tested in combination with various antibiotics against metallo β-lactamase producing bacteria.

P. aerug JMI 2686 [2] = settings: P. aerug JMI 2686 (KPC-2 (Cpase)); substance alone
K. pneumo JMI 2673 [3] = settings: K. pneumo JMI 2673 (CTX-M14 (ESBL)); substance alone
E. coli JMI 11103 = tested on: E. coli JMI 11103
E. coli JMI 10767 [4] = settings: E. coli JMI 10767 (Wt)
E. coli JMI 10770 [5] = settings: Escherichia coli, JMI10770; E. coli JMI 10770 (CTX-M15 (Hyper ESBL)); substance alone
K. pneumo JMI 4088 [6] = settings: K. pneumo JMI 4088 (KPC-3 (Cpase))
Procedure, shortened: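 Minimum inhibitory concentrations were measured for antibiotics given together with the test inhibitor, held at 4 µg/mL, against bacteria that produce β-lactamase. The purpose was to see whether the inhibitor restores or boosts antibacterial activity, that is, synergy with the antibiotic.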

K.pneumo JMI 4109 [7] = settings: K.pneumo JMI 4109 (SHV-1, SHV-12)
Procedure, shortened: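 Antibacterial synergy was assessed by pairing each inhibitor compound, at a constant concentration of 4 µg/mL, with β-lactam antibiotics. The combinations were run against bacterial strains that produce β-lactamases, and the readout was the minimum inhibitory concentration of the antibiotic in the presence of the inhibitor.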

K. pneumo JMI 2674 [8] = settings: K. pneumo JMI 2674 (CTX-M15 (ESBL))
Procedure, shortened: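 Antibacterial activity was assessed as minimum inhibitory concentrations against a β-lactamase-producing bacterial strain. Each test inhibitor was combined with an antibiotic, with the inhibitor held at a fixed 4 µg/mL, to determine whether it acted synergistically and restored the antibiotic's effect against the resistant organism.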

E. coli JMI 10770 [9] = settings: E. coli JMI 10770 (CTX-M15 (Hyper ESBL))
Protocol: (§1) In the Tables 10 - 12, compounds herein disclosed were tested in combination with various antibiotics against metallo β-lactamase producing bacteria. Table 3: Synergy of the inhibitor Ex. 1 (4 µg/mL) in combination with antibiotics

K. pneumo JMI 2673 [10] = settings: K. pneumo JMI 2673 (CTX-M14 (ESBL))
Procedure, shortened: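 Compounds were evaluated together with various antibiotics to measure synergistic antibacterial activity. For each combination, the minimum inhibitory concentration of the antibiotic was recorded while the inhibitor was present at a constant 4 µg/mL.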

E. coli JMI 2671 = tested on: E. coli JMI 2671
Procedure, shortened: (§2)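 Read-out is the MIC of each antibiotic with 4 µg/mL inhibitor present, in metallo β-lactamase-producing strains.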

E. coli JMI 2665 = tested on: E. coli JMI 2665
Protocol: as §1

E. coli JMI 10767 [11] = settings: E. coli JMI 10767 (Wt); remark: listed apart in the source
Protocol: as §1

P. aerug JMI 2686 [12] = settings: P. aerug JMI 2686 (KPC-2 (Cpase))
Procedure, shortened: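 This antibacterial synergy assay measured the minimum inhibitory concentration of antibiotics combined with the disclosed inhibitor compounds. The inhibitor was held at 4 µg/mL throughout. The aim was to see whether the added compound strengthened the antibiotic's action against the tested bacteria.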

K. pneumo JMI 2699 = K. pneumo JMI 2699 (VIM-1, CTX-M3)
Procedure, shortened: as §2

E. coli JMI 10768 [13] = settings: E. coli JMI 10768 (CTX-M15 (Weak ESBL))
Protocol: as §1

K.pneumo JMI 4109 [14] = settings: K.pneumo JMI 4109 (SHV-1, SHV-12); substance alone
K. pneumo JMI 4088 [15] = settings: K. pneumo JMI 4088 (KPC-3 (Cpase)); substance alone
E. coli JMI 10768 [16] = settings: E. coli JMI 10768 (CTX-M15 (Weak ESBL)); Meropenem + inhibitor at 4 µg/mL
[17] = Aztreonam + inhibitor at 4 µg/mL
[18] = Ceftazidime + inhibitor at 4 µg/mL
[19] = Meropenem + inhibitor at 4 µg/mL

With O=C(NO[C@H]1CCCNC1)[C@@H]1CC[C@@H]2CN1C(=O)N2OS(=O)(=O)O [Ex. 2, (2S,5R)-7-Oxo-N-[(3S)-piperidin-3-yloxy] -6-(sulfooxy)-1,6-diazabicyclo[3.2.1]octane-2-carboxamide] as the compound, how does the MIC (K. pneumo JMI 2674 [1]) read?
The MIC was greater than 16 µg/mL.

And the “MIC Aztreonam + inhibitor” value (K. pneumo JMI 2681; [17])?
Its value is 2 µg/mL.

What about the “MIC Ceftazidime + inhibitor” value (K. pneumo JMI 2681; [18]) of the same compound?
The value was 1 µg/mL.

What about the “MIC Meropenem + inhibitor” value (K. pneumo JMI 2681; [19]) of the same compound?
The value was greater than 2 µg/mL.

What about the MIC (K. pneumo JMI 2681; substance alone, read-out: MIC) of the same compound?
The MIC was greater than 16 µg/mL.

What about the “MIC Aztreonam + inhibitor” value (K. pneumo JMI 4106; [17]) of the same compound?
The value was “≤.062 µg/mL”.

What about the “MIC Ceftazidime + inhibitor” value (K. pneumo JMI 4106; [18]) of the same compound?
The value was no more than 0.25 µg/mL.

What about the “MIC Meropenem + inhibitor” value (K. pneumo JMI 4106; [19]) of the same compound?
Its value is “≤.031 µg/mL”.

What about the MIC (K. pneumo JMI 4106; substance alone, read-out: MIC) of the same compound?
Its MIC is greater than 16 µg/mL.

And the “MIC Aztreonam + inhibitor” value (K. pneumo JMI 2697; [17])?
Its value is “≤.062 µg/mL”.

What about the “MIC Ceftazidime + inhibitor” value (K. pneumo JMI 2697; [18]) of the same compound?
The value was 0.5 µg/mL.

And the “MIC Meropenem + inhibitor” value (K. pneumo JMI 2697; [19])?
The value was “≤.031 µg/mL”.

And the MIC (K. pneumo JMI 2697; substance alone)?
The MIC was 4 µg/mL.

And the MIC (P. aerug JMI 2686 [2])?
The MIC was greater than 16 µg/mL.

What about the MIC (K. pneumo JMI 2673 [3]) of the same compound?
Its MIC is greater than 16 µg/mL.

And the “MIC Aztreonam + inhibitor” value (E. coli JMI 11103; E. coli JMI 11103 (CTX-M15 (Intermediate ESBL)), Aztreonam + inhibitor at 4 µg/mL)?
The value was “≤.062 µg/mL”.

And the “MIC Ceftazidime + inhibitor” value (E. coli JMI 11103; E. coli JMI 11103 (CTX-M15 (Intermediate ESBL)), Ceftazidime + inhibitor at 4 µg/mL)?
Its value is no more than 0.25 µg/mL.

And the “MIC Meropenem + inhibitor” value (E. coli JMI 11103; E. coli JMI 11103 (CTX-M15 (Intermediate ESBL)), Meropenem + inhibitor at 4 µg/mL)?
The value was “≤.031 µg/mL”.

What about the MIC (E. coli JMI 11103; Escherichia coli, JMI11103, E. coli JMI 11103 (CTX-M15 (Intermediate ESBL)), substance alone) of the same compound?
Its MIC is 4 µg/mL.

And the “MIC Meropenem + inhibitor” value (E. coli JMI 10767 [4]; [19])?
The value was “≤.031 µg/mL”.

What about the MIC (E. coli JMI 10767 [4]; Escherichia coli, JMI10767, substance alone) of the same compound?
Its MIC is 4 µg/mL.

What about the MIC (E. coli JMI 10770 [5]) of the same compound?
Its MIC is 4 µg/mL.

What about the “MIC Aztreonam + inhibitor” value (K. pneumo JMI 4088 [6]; [17]) of the same compound?
The value was 0.5 µg/mL.

And the “MIC Ceftazidime + inhibitor” value (K. pneumo JMI 4088 [6]; [18])?
The value was no more than 0.25 µg/mL.

What about the “MIC Meropenem + inhibitor” value (K. pneumo JMI 4088 [6]; [19]) of the same compound?
Its value is 0.062 µg/mL.

And the “MIC Aztreonam + inhibitor” value (K.pneumo JMI 4109 [7]; [17])?
Its value is “≤.062 µg/mL”.

What about the “MIC Ceftazidime + inhibitor” value (K.pneumo JMI 4109 [7]; [18]) of the same compound?
Its value is no more than 0.25 µg/mL.

What about the “MIC Meropenem + inhibitor” value (K.pneumo JMI 4109 [7]; [19]) of the same compound?
Its value is “≤.031 µg/mL”.

What about the “MIC Aztreonam + inhibitor” value (K. pneumo JMI 2674 [8]; [17]) of the same compound?
The value was 0.125 µg/mL.

And the “MIC Ceftazidime + inhibitor” value (K. pneumo JMI 2674 [8]; [18])?
Its value is no more than 0.25 µg/mL.

And the “MIC Meropenem + inhibitor” value (K. pneumo JMI 2674 [8]; [19])?
Its value is 0.125 µg/mL.

What about the “MIC Aztreonam + inhibitor” value (E. coli JMI 10770 [9]; [17]) of the same compound?
Its value is “≤.062 µg/mL”.

What about the “MIC Ceftazidime + inhibitor” value (E. coli JMI 10770 [9]; [18]) of the same compound?
The value was no more than 0.25 µg/mL.

What about the “MIC Meropenem + inhibitor” value (E. coli JMI 10770 [9]; [19]) of the same compound?
The value was “≤.031 µg/mL”.

What about the “MIC Aztreonam + inhibitor” value (K. pneumo JMI 2673 [10]; [17]) of the same compound?
Its value is “≤.062 µg/mL”.

And the “MIC Ceftazidime + inhibitor” value (K. pneumo JMI 2673 [10]; [18])?
Its value is no more than 0.25 µg/mL.

And the “MIC Meropenem + inhibitor” value (K. pneumo JMI 2673 [10]; [19])?
The value was “≤.031 µg/mL”.

What about the “MIC Aztreonam + inhibitor” value (E. coli JMI 2671; E. coli JMI 2671 (VIM-19 (Cpase)), Aztreonam + inhibitor at 4 µg/mL) of the same compound?
Its value is “≤.062 µg/mL”.

What about the “MIC Ceftazidime + inhibitor” value (E. coli JMI 2671; E. coli JMI 2671 (VIM-19 (Cpase)), Ceftazidime + inhibitor at 4 µg/mL) of the same compound?
The value was 0.5 µg/mL.

What about the “MIC Meropenem + inhibitor” value (E. coli JMI 2671; E. coli JMI 2671 (VIM-19 (Cpase)), Meropenem + inhibitor at 4 µg/mL) of the same compound?
Its value is 0.125 µg/mL.

And the MIC (E. coli JMI 2671; Escherichia coli, JMI2671, E. coli JMI 2671 (VIM-19 (Cpase)), substance alone)?
Its MIC is greater than 16 µg/mL.

What about the “MIC Aztreonam + inhibitor” value (E. coli JMI 2665; E. coli JMI 2665 (CMY-2 (Plasmid Cpase)), Aztreonam + inhibitor at 4 µg/mL) of the same compound?
Its value is “≤.062 µg/mL”.

What about the “MIC Ceftazidime + inhibitor” value (E. coli JMI 2665; E. coli JMI 2665 (CMY-2 (Plasmid Cpase)), Ceftazidime + inhibitor at 4 µg/mL) of the same compound?
The value was no more than 0.25 µg/mL.

And the “MIC Meropenem + inhibitor” value (E. coli JMI 2665; E. coli JMI 2665 (CMY-2 (Plasmid Cpase)), Meropenem + inhibitor at 4 µg/mL)?
Its value is “≤.031 µg/mL”.

And the MIC (E. coli JMI 2665; Escherichia coli, JMI2665)?
The MIC was no more than 0.5 µg/mL.

What about the “MIC Aztreonam + inhibitor” value (E. coli JMI 10767 [11]; [17]) of the same compound?
Its value is “≤.062 µg/mL”.

And the “MIC Ceftazidime + inhibitor” value (E. coli JMI 10767 [11]; [18])?
Its value is no more than 0.25 µg/mL.

What about the “MIC Aztreonam + inhibitor” value (P. aerug JMI 2686 [12]; [17]) of the same compound?
The value was greater than 4 µg/mL.

What about the “MIC Ceftazidime + inhibitor” value (P. aerug JMI 2686 [12]; [18]) of the same compound?
Its value is 16 µg/mL.

And the “MIC Meropenem + inhibitor” value (P. aerug JMI 2686 [12]; [19])?
Its value is greater than 2 µg/mL.

What about the “MIC Aztreonam + inhibitor” value (K. pneumo JMI 2699; [17]) of the same compound?
Its value is “≤.062 µg/mL”.

What about the “MIC Ceftazidime + inhibitor” value (K. pneumo JMI 2699; [18]) of the same compound?
The value was no more than 0.25 µg/mL.

What about the “MIC Meropenem + inhibitor” value (K. pneumo JMI 2699; [19]) of the same compound?
The value was 0.062 µg/mL.

What about the MIC (K. pneumo JMI 2699; substance alone, read-out: MIC) of the same compound?
The MIC was 4 µg/mL.

And the “MIC Aztreonam + inhibitor” value (E. coli JMI 10768 [13]; [17])?
Its value is “≤.062 µg/mL”.

What about the “MIC Ceftazidime + inhibitor” value (E. coli JMI 10768 [13]; [18]) of the same compound?
Its value is no more than 0.25 µg/mL.

What about the MIC (E. coli JMI 10768 [13]; Escherichia coli, JMI10768, substance alone) of the same compound?
The MIC was 4 µg/mL.

What about the MIC (K.pneumo JMI 4109 [14]) of the same compound?
The MIC was 16 µg/mL.

What about the MIC (K. pneumo JMI 4088 [15]) of the same compound?
The MIC was 1 µg/mL.

And the “MIC Meropenem + inhibitor” value (E. coli JMI 10768 [16])?
Its value is “≤.031 µg/mL”.
